Tested on: melanoma cell line A375
Test: In vitro anticancer efficacy of the released DOX (MTT and Live/Dead assay)
Assay type: cell-based, human
Conditions: A375 cells, microneedles incubated 1 h
Experimental: A human melanoma cell line A375 was used as the model to investigate the anticancer efficiency of DOX released from the microneedles 14. After incubating microneedles 14 containing 10 μg of DOX with the plated cells for 1 h, the viability of A375 cells was examined using an MTT assay after 24 h. […] The DOX-induced cell death was further investigated by a Live/Dead assay, where live cells metabolized calcein AM into the green fluorescent calcein, and dead cells with compromised membrane integrity were stained by the red fluorescent dye EthD-1. […] The possible reason was that microneedles 14 with more crosslinking time would release less DOX at the same releasing time (1 h).
In vitro anticancer efficacy of the released DOX: In vitro cytotoxicity of the released DOX was evaluated using the melanoma cell line A375 as the model. Specifically, A375 cells were plated in 24-well plates (1×10^6 per well) and incubated for 24 h. Microneedles 14 with different crosslinking degrees were added and incubated for 1 h. After that, the microneedles 14 were removed from the wells, and A375 cells were incubated for another 24 h. The effects of DOX on the metabolic activity of A375 cells in vitro were tested with a rapid colorimetric MTT assay. The absorbance of the wells was read at 570 nm with 630 nm as the reference. […]

Q: `COc1cccc2c1C(=O)c1c(O)c3c(c(O)c1C2=O)C[C@@](O)(C(=O)CO)C[C@@H]3O[C@H]1C[C@H](N)[C@H](O)[C@H](C)O1` [DOX, doxorubicin] was tested. Which “cell death (Live/Dead assay)” value did it give?
A: Its value is “cell death was observed”.

From US20210386985A1, “BIODEGRADABLE MICRONEEDLES FOR TRANSDERMAL THERAPEUTIC AGENT DELIVERY” (THE REGENTS OF THE UNIVERSITY OF CALIFORNIA, priority 2018, published 2021)
